Data set [1] relates to MCF7. The data set can be described thus: Cytotoxicity against human MCF7 cells after 72 hrs by alamar blue assay. It counts as functional, cell-based. The settings on record: MCF7, 72 h.
The species entered for another data set is Homo sapiens. The data set can be described thus: Inhibition of ERK phosphorylation in human HL60 cells at 10 uM after 16 hrs by Western blot analysis. It is filed as cell-based.
The subject of data set [2] is MCF7. Put plainly: Inhibition of ERK phosphorylation in human MCF7 cells at 10 uM after 16 hrs by Western blot analysis. It counts as cell-based.
The subject of a further data set is HeLa. The data set can be described thus: Cytotoxicity against human HeLa cells after 72 hrs by alamar blue assay. It counts as functional, cell-based.
The test system of data set [3] is HL-60. Put plainly: Effect on total ERK expression in human HL60 cells after 16 hrs by Western blot analysis. It counts as cell-based. The conditions noted are these: hl-60, 16 h.
Data set [4] has as its system MCF7. Put plainly: Effect on total ERK expression in human MCF7 cells after 16 hrs by Western blot analysis. It is filed as cell-based. The settings on record: mcf7, 16 h.
Data set [5] has as its system HL-60. Put plainly: Cytotoxicity against human HL60 cells after 72 hrs by alamar blue assay. It counts as functional, cell-based. The conditions noted are these: HL-60, 72 h.

Molecules are shown by their SMILES. Activity calls are given as the source filed them. The calls are words filed in the database; no cut-off is given here.

Take `Cl.Cl.N=C(N)Nc1ccc(Oc2cccc(NC(=N)Nc3ccc(Cl)c(C(F)(F)F)c3)c2)cc1`: the 50% inhibitory concentration (IC50) in the data set with MCF7 [1] is 9.84 µM; in the data set with HeLa, 9.48 µM. In the data set listed under Homo sapiens, the inhibition entry was “inactive”. In addition, the inhibition entry in the data set on MCF7 [2] was “Active”. The Activity result in the data set with HL-60 [3] and in the data set with MCF7 [4] was “Non-Toxic” each time.

For the molecule `CNC(=O)c1cc(Oc2ccc(NC(=O)Nc3ccc(Cl)c(C(F)(F)F)c3)cc2)ccn1` [SORAFENIB], the results for the IC50 in the data set with MCF7 [1], with HL-60 [5] and in the data set on HeLa were 3.07 µM, 2.59 µM and 4.59 µM, respectively. In addition, the inhibition entry in the data set listed under Homo sapiens and in the data set with MCF7 [2] was “Active” in each case. The Activity result in the data set on HL-60 [3] and in the data set on MCF7 [4] was “Non-Toxic” throughout.

In the case of `N=C(N)Oc1ccc(Oc2cccc(NC(=O)c3ccc(Cl)c(C(F)(F)F)c3)c2)cc1`, the IC50 came to 28.7 µM in the data set on MCF7 [1], 35.6 µM in the data set on HL-60 [5] and 83.6 µM in the data set on HeLa.

As for `Cl.Cl.N=C(Nc1cccc(Oc2ccc(OC(=N)N)cc2)c1)Nc1ccc(Cl)c(C(F)(F)F)c1`, the figures for the IC50 with MCF7 [1], in the data set on HL-60 [5] and with HeLa were 4.68 µM, 5.49 µM and 3.35 µM, respectively. Moreover, the inhibition entry in the data set filed under Homo sapiens and in the data set with MCF7 [2] was “Active” in each case. Moreover, the Activity result with HL-60 [3] and with MCF7 [4] was “Non-Toxic” throughout.

Regarding `N=C(N)Nc1ccc(Oc2cccc(NC(=O)c3ccc(Cl)c(C(F)(F)F)c3)c2)cc1`, the IC50 stood at 20.8 µM in the data set on MCF7 [1], 28.2 µM with HL-60 [5] and 11.3 µM in the data set with HeLa.

The record behind these values is ChEMBL document CHEMBL4257509, “Effect of isouronium/guanidinium substitution on the efficacy of a series of novel anti-cancer agents” (Medchemcomm, 2018).
